Results taken from ChEMBL document CHEMBL1147515, “Nickel(II) and cobalt(II) complexes of hydroxyl-substituted triazamacrocyclic ligand as potential antitumor agents” (2004).

Key:
HXO-RB44 cell line [1] = experiment: Percentage of growth inhibition of HXO-RB44 cells treated for 48 hr at 10E-6 M/L and incubated with 5 g/L MTT for 4 h.; type: functional, Homo sapiens; settings: for inhibition: Homo sapiens
Bel-7402 [2] = experiment: Percentage of growth inhibition of BEL-7402 cells treated for 48 hr at 10E-4 M/L and incubated with 5 g/L MTT for 4 h.; type: functional, Homo sapiens; settings: for inhibition: Homo sapiens
Bel-7402 [3] = experiment: Percentage of growth inhibition of BEL-7402 cells treated for 48 hr at 10E-3 M/L and incubated with 5 g/L MTT for 4 h.; type: functional, Homo sapiens; settings: for inhibition: Homo sapiens
HXO-RB44 cell line [4] = experiment: Percentage of growth inhibition of HXO-RB44 cells treated for 48 hr at 10E-4 M/L and incubated with 5 g/L MTT for 4 h.; type: functional, Homo sapiens; settings: for inhibition: Homo sapiens
HXO-RB44 cell line [5] = experiment: Percentage of growth inhibition of HXO-RB44 cells treated for 48 hr at 10E-5 M/L and incubated with 5 g/L MTT for 4 h.; type: functional, Homo sapiens; settings: for inhibition: Homo sapiens
Bel-7402 [6] = experiment: Percentage of growth inhibition of BEL-7402 cells treated for 48 hr at 10E-5 M/L and incubated with 5 g/L MTT for 4 h.; type: functional, cell-based; settings: Homo sapiens

Row | Molecule | Inhibition (HXO-RB44 cell line [1]) [%] | Inhibition (Bel-7402 [2]) [%] | Inhibition (Bel-7402 [3]) [%] | Inhibition (HXO-RB44 cell line [4]) [%] | Inhibition (HXO-RB44 cell line [5]) [%] | inhibition (HXO-RB44 cell line [1]) [%] | inhibition (Bel-7402 [2]) [%] | inhibition (Bel-7402 [3]) [%] | inhibition (HXO-RB44 cell line [4]) [%] | inhibition (HXO-RB44 cell line [5]) [%] | inhibition (Bel-7402 [6]) [%]
1 | OC1CNCCNCCNC1 | 1 | 16 | 34 | 3 | 3 | – | – | – | – | – | –
2 | COBALT (II) ION | – | – | – | – | – | 3 | 5 | 79 | 7 | 3 | 0
3 | COPPER | – | – | – | – | – | 0 | 3 | 81 | 5 | 3 | 2
